Reference: US20210177808A1, “INJECTABLE ISOXAZOLINE PHARMACEUTICAL COMPOSITIONS AND THEIR USE AGAINST PARASITE INFESTATION” (Intervet Inc., priority 2017, published 2021)

Tested on: Ctenocephalides felis fleas
Experiment: Flea efficacy on dogs approximately 6 months after treatment (Example 4B)
Format: in vivo
Method: The results from additional dose characterization studies are summarized. These studies evaluated three doses (10, 15 and 20 mg/kg) in adult dogs. The injectable suspension formulations of fluralaner were prepared is indicated in Example 1J above. One study tested the effectiveness against Rhipicephalus sanguineus ticks (see Table 7). A second study evaluated efficacy against fleas at approximately 6 months after treatment was tested in dogs (see Table 8).

SMILES: Cc1cc(C2=NOC(c3cc(Cl)cc(Cl)c3)(C(F)(F)F)C2)ccc1C(=O)NCC(=O)NCC(F)(F)F (centres unmarked) [fluralaner, 4-[5-(3,5-Dichlorophenyl)-5-trifluoromethyl-4,5-dihydroisoxazol-3-yl]-2-methyl-N-[(2,2,2-trifluoro-ethylcarbamoyl)-methyl]-benzamide]
- Effectiveness in reducing live fleas on dogs (all three doses (10, 15, 20 mg/kg), 6 months following treatment): 100%
- Predicted duration of efficacy against fleas (predicted because fleas are more sensitive to fluralaner than ticks): 12 months
